According to patent US20030110524A1, “TRANSGENIC ORGANISMS AND THEIR USES” (priority 1997, published 2003):

Legend:
[1] = tested on: lung fibroblast cells derived from TG/TK/neo^r transgenic rats; assay: Survival of lung fibroblast cells from TG/TK/neo^r transgenic rats with drugs; format: cell-based, rat; details: for Survival of lung fibroblast cells (related to number of cells in control cultures without drug): TG/TK/neo^r rat cells, drugs added at day 2, geneticin 400 μg/ml, 5FC 100 μg/ml
Protocol: (§1) Fibroblast cultures derived from lung of adult CD2/neo^r, TG/TK/neo^r and control animals were produced and expanded by routine methods (Freshney (1987), Alan R. Liss, New York). Twenty-four hours after plating, geneticin (400 μg/ml) was added to cultures originating from both types of transgenic rats and from control rats, and replaced every three days with fresh medium. When required, cells were subcultured (1:3) to prevent them becoming confluent, again by basic culture methods (Freshney 1987). Cell counts were made manually in 20 fields chosen randomly and the values at each time point, after allowing for changes due to subculturing, were aggregated. […] In the absence of added geneticin, no change in cell survival from either of the transgenic animals was observed.
(§2) The effects of 5-fluorocytosine (5FC) were also determined. 5-fluorocytosine at a concentration of 100 μg/ml had no effect on fibroblast cells derived from control animals or from the TG/TK/neo^r transgenic. In the cells derived from the CD2/neo^r transgenic animal, however, 94% of the originally-plated cells died, or were non-functional (as determined by their failure to exclude trypan blue) after 10 days culture in the presence of 5FC (Table 2).
(§3) Drugs were added at day 2 in culture. Values are related to the number of cells found in control cultures without drug additions at various times after plating, and allowing for dilutions resulting from passaging. Figures are the means of three separate determinations, the standard errors all being less than 15% of the mean.

[2] = tested on: lung fibroblast cells derived from control rats; assay: Survival of lung fibroblast cells from control rats with drugs; format: cell-based, rat; details: for Survival of lung fibroblast cells (related to number of cells in control cultures without drug): control rat cells, drugs added at day 2, geneticin 400 μg/ml, 5FC 100 μg/ml
Protocol: as §1, §2, §3

[3] = tested on: lung fibroblast cells derived from CD2/neo^r transgenic rats; assay: Survival of lung fibroblast cells from CD2/neo^r transgenic rats with drugs; format: cell-based, rat; details: for Survival of lung fibroblast cells (related to number of cells in control cultures without drug): CD2/neo^r rat cells, drugs added at day 2, geneticin 400 μg/ml, 5FC 100 μg/ml
Protocol: as §1, §2, §3

[4] = tested on: thyroid cells derived from TG/TK/neo^r transgenic rats; assay: Survival of thyroid cells from TG/TK/neo^r transgenic rats with drugs; format: cell-based, rat; details: for Survival of thyroid cells (related to number of cells in control cultures without drug): TG/TK/neo^r rat cells, drugs added at day 2, geneticin 400 μg/ml, ACG 10 μg/ml
Protocol: (§4) Thyroid cultures derived from the thyroid gland of adult CD2/neo^r, TG/TK/neo^r and control animals were produced by routine methods (Freshney, 1987). Twenty-four hours after plating, geneticin (400 μg/ml) was added to cultures originating from both types of transgenic and the control rats, and replaced every three days with fresh medium. When required, cells were subcultured (1:2) to prevent their becoming confluent. Cell counts were made manually in 20 fields chosen randomly, and the values at each time point, after allowing for changes due to subculturing, were aggregated (Table 3). […] Ten days later, cell counts were again made of 20 fields chosen at random. […] The results were as expected in view of the specific and non-specific expression of the positive and negative selection markers, in the TG/TK/neo^r and CD2/neo^r transgenics, respectively.
as §3, with “allow” for “allowing”

[5] = tested on: thyroid cells derived from CD2/neo^r transgenic rats; assay: Survival of thyroid cells from CD2/neo^r transgenic rats with drugs; format: cell-based; details: CD2/neo^r rat cells, drugs added at day 2, geneticin 400 μg/ml, ACG 10 μg/ml
Protocol: as §4
as §3, with “allow” for “allowing”

[6] = tested on: thyroid cells derived from control rats; assay: Survival of thyroid cells from control rats with drugs; format: cell-based, rat; details: for Survival of thyroid cells (related to number of cells in control cultures without drug): control rat cells, drugs added at day 2, geneticin 400 μg/ml, ACG 10 μg/ml
Protocol: as §4
as §3, with “allow” for “allowing”

[7] = tested on: thyroid follicle cells; assay: Ablation of thyroid follicle cells in vivo; design: species or system rat
[8] = transgenic rats treated with ACG for 12 days

Nc1nc(=O)[nH]cc1F [5FC, 5-fluorocytosine]
Survival of lung fibroblast cells (related to number of cells in control cultures without drug) ([1]; day 1 in culture): 98 | Survival of lung fibroblast cells (related to number of cells in control cultures without drug) ([1]; day 3 in culture): 96 | Survival of lung fibroblast cells (related to number of cells in control cultures without drug) ([1]; day 5 in culture): 95 | Survival of lung fibroblast cells (related to number of cells in control cultures without drug) ([1]; day 7 in culture): 92 | Survival of lung fibroblast cells (related to number of cells in control cultures without drug) ([1]; day 9 in culture): 92 | Survival of lung fibroblast cells (related to number of cells in control cultures without drug) ([1]; day 11 in culture): 93 | Effect of 5-fluorocytosine on fibroblast cells ([1]; TG/TK/neo^r transgenic, 100 μg/ml): had no effect | Effect of 5-fluorocytosine on fibroblast cells ([2]; control animals, 100 μg/ml): had no effect | Survival of lung fibroblast cells (related to number of cells in control cultures without drug) ([2]; day 1 in culture): 101 | Survival of lung fibroblast cells (related to number of cells in control cultures without drug) ([2]; day 3 in culture): 105 | Survival of lung fibroblast cells (related to number of cells in control cultures without drug) ([2]; day 5 in culture): 98 | Survival of lung fibroblast cells (related to number of cells in control cultures without drug) ([2]; day 7 in culture): 97 | Survival of lung fibroblast cells (related to number of cells in control cultures without drug) ([2]; day 9 in culture): 93 | Survival of lung fibroblast cells (related to number of cells in control cultures without drug) ([2]; day 11 in culture): 96 | Difference in cell counts between cultures in the absence and presence of 5FC ([2]; control rats): no significant difference in cell counts | Survival of lung fibroblast cells (related to number of cells in control cultures without drug) ([3]; day 1 in culture): 94 | Survival of lung fibroblast cells (related to number of cells in control cultures without drug) ([3]; day 3 in culture): 5 | Survival of lung fibroblast cells (related to number of cells in control cultures without drug) ([3]; day 5 in culture): 3 | Survival of lung fibroblast cells (related to number of cells in control cultures without drug) ([3]; day 7 in culture): 3 | Survival of lung fibroblast cells (related to number of cells in control cultures without drug) ([3]; day 9 in culture): 4 | Survival of lung fibroblast cells (related to number of cells in control cultures without drug) ([3]; day 11 in culture): 4 | Originally-plated cells died, or were non-functional (failure to exclude trypan blue) ([3]; CD2/neo^r transgenic, 100 μg/ml, after 10 days culture in the presence of 5FC): 94%

Nc1nc2c(ncn2COCCO)c(=O)[nH]1 [ACG, acycloguanosine]
Survival of thyroid cells (related to number of cells in control cultures without drug) ([4]; day 1 in culture): 98 | Survival of thyroid cells (related to number of cells in control cultures without drug) ([4]; day 3 in culture): 38 | Survival of thyroid cells (related to number of cells in control cultures without drug) ([4]; day 5 in culture): 12 | Survival of thyroid cells (related to number of cells in control cultures without drug) ([4]; day 7 in culture): 10 | Survival of thyroid cells (related to number of cells in control cultures without drug) ([4]; day 9 in culture): 8 | Survival of thyroid cells (related to number of cells in control cultures without drug) ([4]; day 11 in culture): 7 | Survival of thyroid cells under ACG treatment ([4]; TG/TK/neo^r transgenic, 10 μg/ml ACG): did not survive ACG treatment | Survival of thyroid cells (related to number of cells in control cultures without drug) ([5]; day 1 in culture): 98 | Survival of thyroid cells (related to number of cells in control cultures without drug) ([5]; day 3 in culture): 90 | Survival of thyroid cells (related to number of cells in control cultures without drug) ([5]; day 5 in culture): 93 | Survival of thyroid cells (related to number of cells in control cultures without drug) ([5]; day 7 in culture): 93 | Survival of thyroid cells (related to number of cells in control cultures without drug) ([5]; day 9 in culture): 97 | Survival of thyroid cells (related to number of cells in control cultures without drug) ([5]; day 11 in culture): 88 | Survival of thyroid cells under ACG treatment ([6]; control animals, 10 μg/ml ACG): the cells derived from the control animals did | Survival of thyroid cells (related to number of cells in control cultures without drug) ([6]; day 1 in culture): 94 | Survival of thyroid cells (related to number of cells in control cultures without drug) ([6]; day 3 in culture): 97 | Survival of thyroid cells (related to number of cells in control cultures without drug) ([6]; day 5 in culture): 98 | Survival of thyroid cells (related to number of cells in control cultures without drug) ([6]; day 7 in culture): 91 | Survival of thyroid cells (related to number of cells in control cultures without drug) ([6]; day 9 in culture): 92 | Survival of thyroid cells (related to number of cells in control cultures without drug) ([6]; day 11 in culture): 102 | Effect on T3 and T4 ([7]; lower amounts of ACG per day): partial loss of T3 and T4 | Serum level of T4 ([7]; transgenic adult female rats, 50 mg ACG per day i.p. for 5 days, seven days after the final injection, N=6): less than 2.5 nM | Histochemical analysis of thyroid glands [7, 8]: almost complete loss of follicular cells | Thyroid gland weight, of the original weights [7, 8]: 7%
